Measured values reported in ChEMBL document CHEMBL4725243, “High-Throughput Screening for the Discovery of Enzyme Inhibitors” (J Med Chem, 2020).

Target: Immunoglobulin A1 protease autotransporter (Haemophilus influenzae (strain ATCC 51907 / DSM 11121 / KW20 / Rd), UniProt P44969)
Experiment: Inhibition of Haemophilus influenzae Rd IGA1 protease expressed in Escherichia coli BL21(DE3) preincubated for 1 hr followed by substrate addition and measured after 2 hrs by sandwich ELISA

Immunoglobulin A1 protease autotransporter, sequence (P44969 26-1014 limits assumed): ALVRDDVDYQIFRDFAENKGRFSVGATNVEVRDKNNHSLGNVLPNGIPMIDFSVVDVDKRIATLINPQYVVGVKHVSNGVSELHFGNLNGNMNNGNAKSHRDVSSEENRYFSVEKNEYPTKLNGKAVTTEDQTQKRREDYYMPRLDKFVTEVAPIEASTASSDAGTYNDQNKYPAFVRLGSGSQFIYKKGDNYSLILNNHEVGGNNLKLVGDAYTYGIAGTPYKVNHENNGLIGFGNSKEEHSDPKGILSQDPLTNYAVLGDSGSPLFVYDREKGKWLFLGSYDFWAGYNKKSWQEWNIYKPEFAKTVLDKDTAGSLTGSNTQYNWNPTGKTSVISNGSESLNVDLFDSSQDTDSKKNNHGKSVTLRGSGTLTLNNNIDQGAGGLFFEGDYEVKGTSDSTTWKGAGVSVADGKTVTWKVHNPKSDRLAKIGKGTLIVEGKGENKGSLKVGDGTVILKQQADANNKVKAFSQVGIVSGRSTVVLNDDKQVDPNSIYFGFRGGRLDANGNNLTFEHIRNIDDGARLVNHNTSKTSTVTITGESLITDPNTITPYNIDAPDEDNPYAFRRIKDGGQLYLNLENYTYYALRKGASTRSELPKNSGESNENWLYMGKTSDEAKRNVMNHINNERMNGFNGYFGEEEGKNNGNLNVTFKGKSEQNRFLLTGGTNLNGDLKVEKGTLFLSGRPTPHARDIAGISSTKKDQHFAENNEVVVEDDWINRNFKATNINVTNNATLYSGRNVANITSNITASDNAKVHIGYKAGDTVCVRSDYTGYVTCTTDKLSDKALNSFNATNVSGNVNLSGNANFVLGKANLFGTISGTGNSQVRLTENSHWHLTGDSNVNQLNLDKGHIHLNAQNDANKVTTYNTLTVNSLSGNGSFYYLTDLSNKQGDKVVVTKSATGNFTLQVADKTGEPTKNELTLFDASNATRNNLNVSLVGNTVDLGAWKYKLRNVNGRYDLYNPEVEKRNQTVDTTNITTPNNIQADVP

Row | Compound | IC50 [µM]
1 | O=C(Oc1nsnc1N1CCOCC1)c1ccccc1 | 5.9
2 | O=C(Oc1nsnc1N1CCCCC1)C1CCOCC1 | 3.7
